# Results published in the kinase profiling compilation of Christmann-Franck et al. (2016).
# What was measured:
# Test in all cases: KINOMEscan competition binding
# MAP3K4 (human) = MAP3K4 (human) (UniProt Q9Y6R4); conditions: compound 10.0 µM
# CAMKK1 (human) = CAMKK1 (human) (UniProt Q8N5S9); conditions: compound 10.0 µM
# CHUK (human) = CHUK (human) (UniProt O15111); conditions: compound 10.0 µM
# TAOK3 (human) = TAOK3 (human) (UniProt Q9H2K8); conditions: compound 10.0 µM
# MAPK4 (human) = MAPK4 (human) (UniProt P31152); conditions: compound 10.0 µM
# TEK (human) = TEK (human) (UniProt Q02763); conditions: compound 10.0 µM
# CLK2 (human) = CLK2 (human) (UniProt P49760); conditions: for kinase still bound, per cent of control: compound 10.0 µM
# [1] = system: EGFR (human), P00533 [P753S; 747-752 del]; conditions: compound 10.0 µM
# RIPK2 (human) = RIPK2 (human) (UniProt O43353); conditions: compound 10.0 µM
# CAMKK2 (human) = CAMKK2 (human) (UniProt Q96RR4); conditions: compound 10.0 µM
# AURKC (human) = AURKC (human) (UniProt Q9UQB9); conditions: compound 10.0 µM
# DCLK1 (human) = DCLK1 (human) (UniProt O15075); conditions: compound 10.0 µM
# ACVR2B (human) = ACVR2B (human) (UniProt Q13705); conditions: compound 10.0 µM
# CSF1R (human) = CSF1R (human) (UniProt P07333); conditions: compound 10.0 µM
# AAK1 (human) = AAK1 (human) (UniProt Q2M2I8); conditions: compound 10.0 µM
# PHKG1 (human) = PHKG1 (human) (UniProt Q16816); conditions: compound 10.0 µM
# MAP3K10 (human) = MAP3K10 (human) (UniProt Q02779); conditions: compound 10.0 µM
# RPS6KA1 KD2 (human) = RPS6KA1 KD2 (human) (UniProt Q15418); conditions: compound 10.0 µM
# NUAK2 (human) = NUAK2 (human) (UniProt Q9H093); conditions: compound 10.0 µM
# CDK2 (human) = CDK2 (human) (UniProt P24941); conditions: compound 10.0 µM
# PTK2B (human) = PTK2B (human) (UniProt Q14289); conditions: compound 10.0 µM
# [2] = molecular target: TYK2 JH2 pseudokinase (human) (UniProt P29597); conditions: compound 10.0 µM
# CSNK1G3 (human) = CSNK1G3 (human) (UniProt Q9Y6M4); conditions: compound 10.0 µM
# FER (human) = FER (human) (UniProt P16591); conditions: compound 10.0 µM
# CDK11A (human) = CDK11A (human) (UniProt Q9UQ88); conditions: compound 10.0 µM
# MAPK11 (human) = MAPK11 (human) (UniProt Q15759); conditions: compound 10.0 µM
# MAPK10 (human) = MAPK10 (human) (UniProt P53779); conditions: compound 10.0 µM
# [3] = system: EIF2AK4 KD2 (human), Q9P2K8 [S808G]; conditions: compound 10.0 µM
# [4] = molecular target: JAK3 JH1 catalytic (human) (UniProt P52333); conditions: compound 10.0 µM
# EPHB3 (human) = EPHB3 (human) (UniProt P54753); conditions: compound 10.0 µM
# HIPK1 (human) = HIPK1 (human) (UniProt Q86Z02); conditions: compound 10.0 µM
# MAP3K5 (human) = MAP3K5 (human) (UniProt Q99683); conditions: compound 10.0 µM
# MAP3K7 (human) = MAP3K7 (human) (UniProt O43318); conditions: compound 10.0 µM
# MUSK (human) = MUSK (human) (UniProt O15146); conditions: compound 10.0 µM
# EPHA8 (human) = EPHA8 (human) (UniProt P29322); conditions: compound 10.0 µM
# STK17A (human) = STK17A (human) (UniProt Q9UEE5); conditions: for kinase still bound, per cent of control: compound 10.0 µM
# [5] = system: PIK3CA (human), P42336 [E545K]; conditions: compound 10.0 µM
# STK33 (human) = STK33 (human) (UniProt Q9BYT3); conditions: compound 10.0 µM
# RAF1 (human) = RAF1 (human) (UniProt P04049); conditions: compound 10.0 µM
# ACVR1 (human) = ACVR1 (human) (UniProt Q04771); conditions: compound 10.0 µM
# MYO3B (human) = MYO3B (human) (UniProt Q8WXR4); conditions: compound 10.0 µM
# [6] = molecular target: JAK2 JH1 catalytic (human) (UniProt O60674); conditions: compound 10.0 µM
# Sequence of TEK (human) (Q02763 whole entry, looked up): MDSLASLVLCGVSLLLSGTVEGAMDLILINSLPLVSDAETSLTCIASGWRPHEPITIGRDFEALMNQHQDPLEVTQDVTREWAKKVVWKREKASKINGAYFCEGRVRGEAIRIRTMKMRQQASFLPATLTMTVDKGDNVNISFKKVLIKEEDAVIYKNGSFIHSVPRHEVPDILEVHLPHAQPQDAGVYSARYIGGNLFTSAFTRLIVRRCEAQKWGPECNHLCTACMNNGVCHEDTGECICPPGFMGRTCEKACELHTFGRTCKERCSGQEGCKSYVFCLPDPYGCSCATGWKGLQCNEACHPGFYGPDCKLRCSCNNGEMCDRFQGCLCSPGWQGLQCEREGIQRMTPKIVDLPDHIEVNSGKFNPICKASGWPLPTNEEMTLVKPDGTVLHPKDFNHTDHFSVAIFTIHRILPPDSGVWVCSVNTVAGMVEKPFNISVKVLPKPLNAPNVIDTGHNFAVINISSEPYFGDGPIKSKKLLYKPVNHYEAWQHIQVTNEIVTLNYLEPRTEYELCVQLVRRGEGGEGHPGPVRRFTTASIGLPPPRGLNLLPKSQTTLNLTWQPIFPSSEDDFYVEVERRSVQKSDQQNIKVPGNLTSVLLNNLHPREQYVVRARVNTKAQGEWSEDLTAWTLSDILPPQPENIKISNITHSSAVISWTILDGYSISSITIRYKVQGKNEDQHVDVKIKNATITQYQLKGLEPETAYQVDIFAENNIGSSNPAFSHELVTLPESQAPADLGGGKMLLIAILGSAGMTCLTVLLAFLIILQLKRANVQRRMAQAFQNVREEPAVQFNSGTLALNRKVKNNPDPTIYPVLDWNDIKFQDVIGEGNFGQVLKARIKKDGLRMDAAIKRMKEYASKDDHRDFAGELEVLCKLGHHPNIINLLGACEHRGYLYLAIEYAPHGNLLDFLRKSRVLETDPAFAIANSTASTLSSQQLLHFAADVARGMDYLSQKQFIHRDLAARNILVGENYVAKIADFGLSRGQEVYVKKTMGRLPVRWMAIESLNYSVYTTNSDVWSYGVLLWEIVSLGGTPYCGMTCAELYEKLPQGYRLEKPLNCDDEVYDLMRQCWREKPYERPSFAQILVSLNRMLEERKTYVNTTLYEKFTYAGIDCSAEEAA
# Sequence of PHKG1 (human) (Q16816 whole entry, looked up): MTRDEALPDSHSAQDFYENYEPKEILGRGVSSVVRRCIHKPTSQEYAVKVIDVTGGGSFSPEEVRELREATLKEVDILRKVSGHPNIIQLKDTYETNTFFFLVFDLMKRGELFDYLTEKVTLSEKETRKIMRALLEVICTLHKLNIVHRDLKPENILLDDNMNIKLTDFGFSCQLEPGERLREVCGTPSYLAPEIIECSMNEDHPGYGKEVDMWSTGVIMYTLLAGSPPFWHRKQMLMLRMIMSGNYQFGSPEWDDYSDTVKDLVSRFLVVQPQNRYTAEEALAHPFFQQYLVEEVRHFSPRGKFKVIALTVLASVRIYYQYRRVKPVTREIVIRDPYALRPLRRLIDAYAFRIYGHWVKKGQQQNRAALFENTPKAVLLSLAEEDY
# Sequence of NUAK2 (human) (Q9H093 whole entry, looked up): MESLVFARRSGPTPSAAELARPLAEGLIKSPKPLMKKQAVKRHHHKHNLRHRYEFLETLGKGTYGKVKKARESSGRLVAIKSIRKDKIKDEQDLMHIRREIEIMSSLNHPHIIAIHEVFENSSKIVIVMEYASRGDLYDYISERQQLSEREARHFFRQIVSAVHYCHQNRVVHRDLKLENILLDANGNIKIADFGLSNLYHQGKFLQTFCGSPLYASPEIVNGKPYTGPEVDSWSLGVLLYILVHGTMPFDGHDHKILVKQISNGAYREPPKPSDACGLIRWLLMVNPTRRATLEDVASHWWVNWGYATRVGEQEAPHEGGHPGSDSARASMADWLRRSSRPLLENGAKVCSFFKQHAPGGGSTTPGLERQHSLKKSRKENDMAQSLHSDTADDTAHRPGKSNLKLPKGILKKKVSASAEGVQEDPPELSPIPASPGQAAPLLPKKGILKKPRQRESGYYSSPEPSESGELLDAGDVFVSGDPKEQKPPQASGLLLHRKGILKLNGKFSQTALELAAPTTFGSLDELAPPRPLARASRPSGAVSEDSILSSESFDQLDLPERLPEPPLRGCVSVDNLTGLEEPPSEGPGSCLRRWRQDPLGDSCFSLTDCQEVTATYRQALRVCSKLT
# Sequence of PTK2B (human) (Q14289 whole entry, looked up): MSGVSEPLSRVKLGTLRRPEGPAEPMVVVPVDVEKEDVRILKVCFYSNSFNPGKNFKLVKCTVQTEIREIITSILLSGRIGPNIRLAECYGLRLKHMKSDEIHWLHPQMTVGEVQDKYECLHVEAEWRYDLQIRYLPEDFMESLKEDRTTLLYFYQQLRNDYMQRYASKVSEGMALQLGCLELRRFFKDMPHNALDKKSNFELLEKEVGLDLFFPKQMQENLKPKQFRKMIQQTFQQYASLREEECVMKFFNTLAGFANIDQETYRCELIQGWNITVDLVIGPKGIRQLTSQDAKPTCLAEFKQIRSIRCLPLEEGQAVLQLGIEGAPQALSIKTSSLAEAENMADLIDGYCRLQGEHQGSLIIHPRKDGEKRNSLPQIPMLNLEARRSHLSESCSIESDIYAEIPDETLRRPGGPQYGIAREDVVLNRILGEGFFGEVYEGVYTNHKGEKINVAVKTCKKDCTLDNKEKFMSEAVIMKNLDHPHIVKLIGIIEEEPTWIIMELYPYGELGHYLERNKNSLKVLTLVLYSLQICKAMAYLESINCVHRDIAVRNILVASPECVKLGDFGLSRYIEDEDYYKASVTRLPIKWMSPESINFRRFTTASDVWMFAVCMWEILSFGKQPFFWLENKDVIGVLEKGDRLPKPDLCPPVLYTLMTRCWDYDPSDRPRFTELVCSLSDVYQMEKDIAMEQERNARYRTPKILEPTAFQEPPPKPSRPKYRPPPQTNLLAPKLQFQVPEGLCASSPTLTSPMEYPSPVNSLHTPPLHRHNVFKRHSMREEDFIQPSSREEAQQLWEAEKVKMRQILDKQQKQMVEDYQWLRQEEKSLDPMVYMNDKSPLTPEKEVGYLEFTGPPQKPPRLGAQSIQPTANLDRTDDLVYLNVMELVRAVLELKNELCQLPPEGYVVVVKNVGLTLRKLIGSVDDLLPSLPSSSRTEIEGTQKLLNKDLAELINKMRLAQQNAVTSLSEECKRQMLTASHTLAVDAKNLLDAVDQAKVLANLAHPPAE
# Sequence of MAP3K7 (human) (O43318 whole entry, looked up): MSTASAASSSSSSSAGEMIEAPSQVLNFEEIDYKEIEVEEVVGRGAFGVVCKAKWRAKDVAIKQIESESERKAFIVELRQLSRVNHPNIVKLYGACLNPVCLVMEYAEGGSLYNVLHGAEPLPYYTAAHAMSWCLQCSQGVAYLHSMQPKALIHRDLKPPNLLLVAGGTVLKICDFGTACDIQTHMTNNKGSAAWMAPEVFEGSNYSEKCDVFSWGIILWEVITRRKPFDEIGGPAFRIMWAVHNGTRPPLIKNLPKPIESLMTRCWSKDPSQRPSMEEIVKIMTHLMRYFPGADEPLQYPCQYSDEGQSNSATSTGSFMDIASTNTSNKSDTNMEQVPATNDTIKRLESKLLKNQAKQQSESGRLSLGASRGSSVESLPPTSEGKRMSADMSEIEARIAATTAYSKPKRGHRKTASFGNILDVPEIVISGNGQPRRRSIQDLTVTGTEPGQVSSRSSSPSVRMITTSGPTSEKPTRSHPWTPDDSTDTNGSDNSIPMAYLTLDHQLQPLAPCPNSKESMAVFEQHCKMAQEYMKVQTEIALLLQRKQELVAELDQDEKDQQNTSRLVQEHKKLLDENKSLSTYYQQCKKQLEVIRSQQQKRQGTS
# Sequence of ACVR1 (human) (Q04771 whole entry, looked up): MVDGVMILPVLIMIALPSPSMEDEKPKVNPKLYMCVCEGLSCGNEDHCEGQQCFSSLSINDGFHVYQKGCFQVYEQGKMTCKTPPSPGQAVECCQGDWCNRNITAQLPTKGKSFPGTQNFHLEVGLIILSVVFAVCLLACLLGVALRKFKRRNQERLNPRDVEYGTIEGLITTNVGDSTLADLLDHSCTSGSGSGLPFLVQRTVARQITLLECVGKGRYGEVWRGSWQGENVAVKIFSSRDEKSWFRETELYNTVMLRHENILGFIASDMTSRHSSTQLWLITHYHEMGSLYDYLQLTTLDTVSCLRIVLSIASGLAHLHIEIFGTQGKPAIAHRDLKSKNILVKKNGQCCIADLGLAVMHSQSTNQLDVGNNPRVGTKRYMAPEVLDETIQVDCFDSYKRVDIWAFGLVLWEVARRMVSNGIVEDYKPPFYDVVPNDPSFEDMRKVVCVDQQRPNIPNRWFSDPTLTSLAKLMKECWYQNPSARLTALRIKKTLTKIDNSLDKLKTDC
# Sequence of CHUK (human) (O15111 whole entry, looked up): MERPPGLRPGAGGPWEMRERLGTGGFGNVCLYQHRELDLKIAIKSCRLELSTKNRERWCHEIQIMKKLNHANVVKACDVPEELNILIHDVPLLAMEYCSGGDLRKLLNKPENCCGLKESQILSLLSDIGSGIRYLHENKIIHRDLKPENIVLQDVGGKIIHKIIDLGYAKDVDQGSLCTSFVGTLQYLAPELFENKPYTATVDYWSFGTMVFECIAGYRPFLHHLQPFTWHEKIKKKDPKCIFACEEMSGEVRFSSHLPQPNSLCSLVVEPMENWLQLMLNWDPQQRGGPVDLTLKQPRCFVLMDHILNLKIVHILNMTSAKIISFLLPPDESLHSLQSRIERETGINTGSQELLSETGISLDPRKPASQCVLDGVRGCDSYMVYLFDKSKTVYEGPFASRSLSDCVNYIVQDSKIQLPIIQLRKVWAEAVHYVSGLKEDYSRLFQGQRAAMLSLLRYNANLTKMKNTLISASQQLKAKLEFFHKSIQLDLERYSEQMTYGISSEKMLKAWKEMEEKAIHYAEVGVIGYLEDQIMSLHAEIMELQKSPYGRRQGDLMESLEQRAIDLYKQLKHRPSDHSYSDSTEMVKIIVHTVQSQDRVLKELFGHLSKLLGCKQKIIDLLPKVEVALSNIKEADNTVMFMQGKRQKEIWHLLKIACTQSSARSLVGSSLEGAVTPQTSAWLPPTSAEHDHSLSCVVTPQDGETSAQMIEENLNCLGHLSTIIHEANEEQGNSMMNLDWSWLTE
smiles,measurement,setting,value
O=C1NC(=O)/C(=C/c2c[nH]c(=O)c(-c3ccc(N4CCNCC4)nc3)c2)S1,"kinase still bound, per cent of control",MAP3K4 (human),14%
same,"kinase still bound, per cent of control",CAMKK1 (human),14%
same,"kinase still bound, per cent of control",CHUK (human),53%
same,"kinase still bound, per cent of control",TAOK3 (human),8.6%
same,"kinase still bound, per cent of control",MAPK4 (human),100%
same,"kinase still bound, per cent of control",TEK (human),100%
same,Kd,CLK2 (human),150 nM
same,"kinase still bound, per cent of control",CLK2 (human),0%
same,"kinase still bound, per cent of control",[1],76%
same,"kinase still bound, per cent of control",RIPK2 (human),9.9%
same,"kinase still bound, per cent of control",CAMKK2 (human),31%
same,"kinase still bound, per cent of control",AURKC (human),57%
same,"kinase still bound, per cent of control",DCLK1 (human),73%
same,"kinase still bound, per cent of control",ACVR2B (human),36%
same,"kinase still bound, per cent of control",CSF1R (human),69%
same,"kinase still bound, per cent of control",AAK1 (human),2.4%
same,"kinase still bound, per cent of control",PHKG1 (human),29%
same,"kinase still bound, per cent of control",MAP3K10 (human),100%
same,"kinase still bound, per cent of control",RPS6KA1 KD2 (human),34%
same,"kinase still bound, per cent of control",NUAK2 (human),37%
same,"kinase still bound, per cent of control",CDK2 (human),73%
same,"kinase still bound, per cent of control",PTK2B (human),100%
same,"kinase still bound, per cent of control",[2],72%
same,"kinase still bound, per cent of control",CSNK1G3 (human),3.2%
same,"kinase still bound, per cent of control",FER (human),100%
same,"kinase still bound, per cent of control",CDK11A (human),63%
same,"kinase still bound, per cent of control",MAPK11 (human),82%
same,"kinase still bound, per cent of control",MAPK10 (human),77%
same,"kinase still bound, per cent of control",[3],2.6%
same,"kinase still bound, per cent of control",[4],4%
same,"kinase still bound, per cent of control",EPHB3 (human),91%
same,"kinase still bound, per cent of control",HIPK1 (human),3.5%
same,"kinase still bound, per cent of control",MAP3K5 (human),100%
same,"kinase still bound, per cent of control",MAP3K7 (human),91%
same,"kinase still bound, per cent of control",MUSK (human),97%
same,"kinase still bound, per cent of control",EPHA8 (human),76%
same,Kd,STK17A (human),190 nM
same,"kinase still bound, per cent of control",STK17A (human),0.05%
same,"kinase still bound, per cent of control",[5],37%
same,"kinase still bound, per cent of control",STK33 (human),2.7%
same,"kinase still bound, per cent of control",RAF1 (human),94%
same,"kinase still bound, per cent of control",ACVR1 (human),20%
same,"kinase still bound, per cent of control",MYO3B (human),74%
same,"kinase still bound, per cent of control",[6],14%
COc1cc(N2CCC(O)CC2)ccc1Nc1ncc2c(n1)N1CCc3cccc(c31)C(=O)N2C,"kinase still bound, per cent of control",MAP3K4 (human),84%
same,"kinase still bound, per cent of control",CAMKK1 (human),77%
same,"kinase still bound, per cent of control",CHUK (human),79%
same,"kinase still bound, per cent of control",TAOK3 (human),70%
same,"kinase still bound, per cent of control",MAPK4 (human),100%
same,"kinase still bound, per cent of control",TEK (human),98%
same,"kinase still bound, per cent of control",CLK2 (human),55%
same,"kinase still bound, per cent of control",[1],91%
same,"kinase still bound, per cent of control",RIPK2 (human),100%
same,"kinase still bound, per cent of control",CAMKK2 (human),60%
same,"kinase still bound, per cent of control",AURKC (human),89%
same,"kinase still bound, per cent of control",DCLK1 (human),4.5%
same,"kinase still bound, per cent of control",ACVR2B (human),100%
same,"kinase still bound, per cent of control",CSF1R (human),67%
same,"kinase still bound, per cent of control",AAK1 (human),35%
same,"kinase still bound, per cent of control",PHKG1 (human),89%
same,"kinase still bound, per cent of control",MAP3K10 (human),100%
same,"kinase still bound, per cent of control",RPS6KA1 KD2 (human),8%
same,"kinase still bound, per cent of control",NUAK2 (human),60%
same,"kinase still bound, per cent of control",CDK2 (human),87%
same,"kinase still bound, per cent of control",PTK2B (human),57%
same,"kinase still bound, per cent of control",[2],70%
same,"kinase still bound, per cent of control",CSNK1G3 (human),90%
same,"kinase still bound, per cent of control",FER (human),74%
same,"kinase still bound, per cent of control",CDK11A (human),100%
same,"kinase still bound, per cent of control",MAPK11 (human),74%
same,"kinase still bound, per cent of control",MAPK10 (human),42%
same,"kinase still bound, per cent of control",[3],100%
same,"kinase still bound, per cent of control",[4],86%
same,"kinase still bound, per cent of control",EPHB3 (human),100%
same,"kinase still bound, per cent of control",HIPK1 (human),73%
same,"kinase still bound, per cent of control",MAP3K5 (human),100%
same,"kinase still bound, per cent of control",MAP3K7 (human),98%
same,"kinase still bound, per cent of control",MUSK (human),100%
same,"kinase still bound, per cent of control",EPHA8 (human),92%
same,"kinase still bound, per cent of control",STK17A (human),100%
same,"kinase still bound, per cent of control",[5],88%
same,"kinase still bound, per cent of control",STK33 (human),3.3%
same,"kinase still bound, per cent of control",RAF1 (human),98%
same,"kinase still bound, per cent of control",ACVR1 (human),95%
same,"kinase still bound, per cent of control",MYO3B (human),77%
same,"kinase still bound, per cent of control",[6],69%
CN1C(=O)c2ccccc2N(C)c2nc(Nc3ccc(N4CCC(O)CC4)cc3)ncc21,"kinase still bound, per cent of control",MAP3K4 (human),100%
same,"kinase still bound, per cent of control",CAMKK1 (human),98%
same,"kinase still bound, per cent of control",CHUK (human),79%
same,"kinase still bound, per cent of control",TAOK3 (human),1.2%
same,"kinase still bound, per cent of control",MAPK4 (human),100%
same,"kinase still bound, per cent of control",TEK (human),72%
same,"kinase still bound, per cent of control",CLK2 (human),100%
same,"kinase still bound, per cent of control",[1],100%
same,"kinase still bound, per cent of control",RIPK2 (human),66%
same,"kinase still bound, per cent of control",CAMKK2 (human),55%
same,"kinase still bound, per cent of control",AURKC (human),22%
same,"kinase still bound, per cent of control",DCLK1 (human),1.8%
same,"kinase still bound, per cent of control",ACVR2B (human),45%
same,"kinase still bound, per cent of control",CSF1R (human),5.8%
same,"kinase still bound, per cent of control",AAK1 (human),62%
same,"kinase still bound, per cent of control",PHKG1 (human),95%
same,"kinase still bound, per cent of control",MAP3K10 (human),100%
same,"kinase still bound, per cent of control",RPS6KA1 KD2 (human),45%
same,"kinase still bound, per cent of control",NUAK2 (human),23%
same,"kinase still bound, per cent of control",CDK2 (human),91%
same,"kinase still bound, per cent of control",PTK2B (human),78%
same,"kinase still bound, per cent of control",[2],71%
same,"kinase still bound, per cent of control",CSNK1G3 (human),67%
same,"kinase still bound, per cent of control",FER (human),100%
same,"kinase still bound, per cent of control",CDK11A (human),100%
same,"kinase still bound, per cent of control",MAPK11 (human),88%
same,"kinase still bound, per cent of control",MAPK10 (human),100%
same,"kinase still bound, per cent of control",[3],98%
same,"kinase still bound, per cent of control",[4],93%
same,"kinase still bound, per cent of control",EPHB3 (human),100%
same,"kinase still bound, per cent of control",HIPK1 (human),95%
same,"kinase still bound, per cent of control",MAP3K5 (human),100%
same,"kinase still bound, per cent of control",MAP3K7 (human),58%
same,"kinase still bound, per cent of control",MUSK (human),100%
same,"kinase still bound, per cent of control",EPHA8 (human),100%
same,"kinase still bound, per cent of control",STK17A (human),100%
same,"kinase still bound, per cent of control",[5],100%
same,"kinase still bound, per cent of control",STK33 (human),75%
same,"kinase still bound, per cent of control",RAF1 (human),100%
same,"kinase still bound, per cent of control",ACVR1 (human),88%
same,"kinase still bound, per cent of control",MYO3B (human),73%
same,"kinase still bound, per cent of control",[6],1.3%
